SMILES strings stand for the structures.

The source of these data is ChEMBL document CHEMBL1140262 (J Med Chem, 2005).

The target of test [1] is Synaptic vesicular amine transporter (Rattus norvegicus, UniProt Q01827). In kind it is cell membranes, Membrane.
Description: Inhibition of 5 nM [3H]DTBZ binding to Vesicular Monoamine Transporter (VAMT2) of rat vesicle membranes
Test [2] is filed under the species Rattus norvegicus. The test is described as follows: Ratio of Ki for Nicotinic acetylcholine receptor alpha4-beta2 and Vesicular Monoamine Transporter ([…]).
Test [3] concerns the target Neuronal acetylcholine receptor; alpha4/beta2 (Rattus norvegicus, UniProt P09483+P12390). The test is described as follows: Inhibition of 3 nM [3H]NIC binding to Nicotinic acetylcholine receptor alpha4-beta2 of rat striatal membranes. The format is cell membranes, Membrane.
The target of test [4] is Neuronal acetylcholine receptor subunit alpha-7 (Rattus norvegicus, UniProt Q05941). The format is cell membranes, Membrane.
Description: Inhibition of 3 nM [3H]-MLA binding to Nicotinic acetylcholine receptor alpha7 of rat brain membranes
The species named for test [5] is Rattus norvegicus. As to the kind of experiment: Ratio of Ki for Nicotinic acetylcholine receptor alpha-7 and Vesicular monoamine transporter ([…]).

Sequence of Neuronal acetylcholine receptor; alpha4/beta2 (P09483 whole entry): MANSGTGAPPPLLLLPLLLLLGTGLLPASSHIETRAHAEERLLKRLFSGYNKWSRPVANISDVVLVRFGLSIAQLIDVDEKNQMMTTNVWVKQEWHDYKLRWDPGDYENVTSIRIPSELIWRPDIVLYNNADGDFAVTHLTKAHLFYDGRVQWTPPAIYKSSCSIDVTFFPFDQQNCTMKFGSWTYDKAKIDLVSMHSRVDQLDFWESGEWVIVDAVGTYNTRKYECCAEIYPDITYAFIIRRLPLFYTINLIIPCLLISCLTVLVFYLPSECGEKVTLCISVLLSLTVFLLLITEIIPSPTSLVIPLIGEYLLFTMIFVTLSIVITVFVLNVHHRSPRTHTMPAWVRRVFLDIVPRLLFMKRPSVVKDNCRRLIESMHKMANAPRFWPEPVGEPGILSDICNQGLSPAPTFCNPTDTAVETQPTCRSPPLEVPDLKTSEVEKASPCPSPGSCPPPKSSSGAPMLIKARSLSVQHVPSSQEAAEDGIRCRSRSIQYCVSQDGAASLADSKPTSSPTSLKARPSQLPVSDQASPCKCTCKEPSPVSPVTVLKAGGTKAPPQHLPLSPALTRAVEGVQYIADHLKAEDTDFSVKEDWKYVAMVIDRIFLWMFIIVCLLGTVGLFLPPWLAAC
Sequence of Neuronal acetylcholine receptor; alpha4/beta2 (P12390 whole entry): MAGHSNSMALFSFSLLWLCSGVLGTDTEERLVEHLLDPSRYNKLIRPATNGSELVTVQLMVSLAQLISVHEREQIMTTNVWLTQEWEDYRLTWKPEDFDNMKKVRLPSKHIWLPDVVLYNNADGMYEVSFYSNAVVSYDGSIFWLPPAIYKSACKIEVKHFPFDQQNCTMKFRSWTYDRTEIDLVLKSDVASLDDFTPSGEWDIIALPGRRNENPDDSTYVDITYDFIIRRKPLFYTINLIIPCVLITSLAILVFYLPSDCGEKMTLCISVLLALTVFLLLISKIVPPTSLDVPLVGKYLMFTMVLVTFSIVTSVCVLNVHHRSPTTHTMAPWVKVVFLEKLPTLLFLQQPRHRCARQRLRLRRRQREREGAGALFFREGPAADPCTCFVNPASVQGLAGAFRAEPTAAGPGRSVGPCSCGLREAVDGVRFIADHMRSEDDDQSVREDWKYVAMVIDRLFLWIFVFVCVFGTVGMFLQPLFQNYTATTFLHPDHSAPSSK
Sequence of Neuronal acetylcholine receptor subunit alpha-7 (Q05941 whole entry): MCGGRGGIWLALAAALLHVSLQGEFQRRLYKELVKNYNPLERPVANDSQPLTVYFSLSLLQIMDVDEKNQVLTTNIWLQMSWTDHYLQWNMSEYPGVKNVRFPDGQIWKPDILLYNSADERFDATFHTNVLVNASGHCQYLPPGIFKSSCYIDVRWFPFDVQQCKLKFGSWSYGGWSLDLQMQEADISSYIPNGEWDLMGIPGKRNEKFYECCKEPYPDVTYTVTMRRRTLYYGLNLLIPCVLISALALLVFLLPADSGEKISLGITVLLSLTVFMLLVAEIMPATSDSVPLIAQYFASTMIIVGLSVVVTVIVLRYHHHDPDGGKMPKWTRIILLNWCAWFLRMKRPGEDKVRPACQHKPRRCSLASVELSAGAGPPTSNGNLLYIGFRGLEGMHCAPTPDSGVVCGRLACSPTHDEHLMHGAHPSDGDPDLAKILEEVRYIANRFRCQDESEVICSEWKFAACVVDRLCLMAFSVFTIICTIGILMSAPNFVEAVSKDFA
Sequence of Synaptic vesicular amine transporter (Q01827 whole entry): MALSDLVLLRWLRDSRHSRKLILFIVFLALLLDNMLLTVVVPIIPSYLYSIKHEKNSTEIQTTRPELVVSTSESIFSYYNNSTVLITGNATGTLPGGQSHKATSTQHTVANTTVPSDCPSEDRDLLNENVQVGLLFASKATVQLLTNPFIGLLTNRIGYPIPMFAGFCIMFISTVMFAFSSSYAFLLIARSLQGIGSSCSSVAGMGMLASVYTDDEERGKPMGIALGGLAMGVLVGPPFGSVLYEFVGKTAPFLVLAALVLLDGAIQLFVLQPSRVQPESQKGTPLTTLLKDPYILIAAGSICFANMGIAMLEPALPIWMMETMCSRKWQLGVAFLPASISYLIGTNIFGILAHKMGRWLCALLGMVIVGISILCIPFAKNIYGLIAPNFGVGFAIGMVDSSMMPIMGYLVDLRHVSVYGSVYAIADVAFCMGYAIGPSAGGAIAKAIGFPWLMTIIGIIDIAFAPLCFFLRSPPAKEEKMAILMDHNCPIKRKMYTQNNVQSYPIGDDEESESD

What is called Ki is a measure of affinity in units of concentration, obtained from inhibition or displacement. A lower Ki goes with a stronger hold on the target. For the molecule `CN1[C@@H](CCc2ccc3ccccc3c2)CCC[C@H]1CCc1ccc2ccccc2c1`, the Ki in test [1] was 2.03 µM; in test [3] it was over 100 µM; in test [4], over 100 µM. In addition, the Ki ratio in the test filed under Rattus norvegicus [2] and in the test listed under Rattus norvegicus [5] was over 49.3 throughout.
`CN1[C@@H](CCc2cccc3ccccc23)CCC[C@H]1CCc1cccc2ccccc12`: the Ki in test [1] was 0.63 µM; in test [3] it was over 100 µM; in test [4], over 100 µM. The Ki ratio in the test listed under Rattus norvegicus [2] and in the test filed under Rattus norvegicus [5] was over 159 each time.
`CN1[C@@H](CCc2ccccc2)CCC[C@H]1/C=C/c1ccccc1` had a Ki in test [3] of over 100 µM.
For `CN(C/C=C/c1ccccc1)C/C=C/c1ccccc1`, the Ki was 2.37 µM in test [1], over 100 µM in test [3] and over 100 µM in test [4]. Moreover, the Ki ratio in the test listed under Rattus norvegicus [2] and in the test filed under Rattus norvegicus [5] was over 42.2 each time.
Consider `CN1[C@H](/C=C/c2ccccc2)CCC[C@H]1/C=C/c1ccccc1`, for which the Ki in test [1] was 19.4 µM; in test [3], over 100 µM; in test [4], over 100 µM. Also, the Ki ratio in the test filed under Rattus norvegicus [2] and in the test filed under Rattus norvegicus [5] was over 5.2 throughout.
On to `C(=C\[C@@H]1CCC[C@H](/C=C/c2ccccc2)N1)/c1ccccc1`, for which the Ki ratio in the test listed under Rattus norvegicus [2] and in the test listed under Rattus norvegicus [5] was over 48.1 throughout. Moreover, the Ki in test [3] and in test [4] was over 100 µM throughout.
As to `CN1[C@H](/C=C/c2ccccc2)CCC[C@@H]1/C=C/c1ccccc1`, the Ki is 9.88 µM in test [1], 11.6 µM in test [3] and over 100 µM in test [4]. For the same molecule, the Ki ratio in the test listed under Rattus norvegicus [2] was 1.2; in the test filed under Rattus norvegicus [5], over 10.1.
As for `CN1[C@H](CCc2ccccc2)CCC[C@@H]1/C=C/c1ccccc1`, the Ki in test [3] is over 100 µM.
As for `C[N+]1(C)[C@H](/C=C/c2ccccc2)CCC[C@@H]1/C=C/c1ccccc1`, the Ki in test [1] is over 100 µM; in test [3], over 100 µM; in test [4], 33.8 µM. In addition, the Ki ratio in the test listed under Rattus norvegicus [5] was under 0.3.
On to `C[N+]1(C)[C@H](/C=C/c2ccccc2)CCC[C@H]1/C=C/c1ccccc1`, for which the Ki in test [1] is 9.24 µM; in test [3] it was over 100 µM; in test [4], 15.1 µM. Moreover, the Ki ratio in the test listed under Rattus norvegicus [2] was over 10.8; in the test listed under Rattus norvegicus [5], 1.6.
In the case of `CN1[C@@H](CCc2ccccc2)C=CC[C@H]1/C=C/c1ccccc1`, the Ki in test [1] was 3.84 µM; in test [3], over 100 µM; in test [4], over 100 µM. In addition, the Ki ratio in the test filed under Rattus norvegicus [2] and in the test filed under Rattus norvegicus [5] was over 26 each time.
The molecule `CN1[C@H](CCc2ccccc2)CCC[C@H]1/C=C/c1ccccc1` gave a Ki in test [3] of over 100 µM.
In the case of `c1ccc2cc(CC[C@H]3CCC[C@@H](CCc4ccc5ccccc5c4)N3)ccc2c1`, the Ki in test [1], in test [3] and in test [4] was over 100 µM throughout.
`CN1[C@@H](CCc2ccccc2)CCC[C@H]1CCc1ccccc1` [LOBELANE] showed an inhibition constant Ki in test [4] of 26 µM.
On to `CN(CCCc1ccccc1)CCCc1ccccc1`, for which the Ki in test [1] was 3.07 µM; in test [3], over 100 µM; in test [4], over 100 µM. Further, the Ki ratio in the test filed under Rattus norvegicus [2] and in the test listed under Rattus norvegicus [5] was over 32.3 each time.
For `CN1[C@@H](/C=C/c2ccccc2)CCC[C@@H]1/C=C/c1ccccc1`, the figures for the Ki in test [1], in test [3] and in test [4] were 7.09 µM, over 100 µM and over 100 µM, respectively. Further, the Ki ratio in the test listed under Rattus norvegicus [2] and in the test listed under Rattus norvegicus [5] was over 14.1 throughout.
Regarding `C[N+]1(C)[C@H](CCc2ccccc2)CCC[C@H]1CCc1ccccc1`, the inhibitory constant (Ki) in test [1] came to 24.6 µM; in test [3] it was 16.2 µM; in test [4], 2.39 µM. Also, the results for the Ki ratio in the test listed under Rattus norvegicus [2] and in the test listed under Rattus norvegicus [5] were 0.7 and 0.1, respectively.
Consider `C[N+]1(C)[C@@H](CCc2ccccc2)CCC[C@H]1CCc1ccccc1`, for which the inhibition constant Ki in test [1] was determined as 16.5 µM; in test [3], 24.3 µM; in test [4] it was 9.63 µM. Besides, the values for the Ki ratio in the test listed under Rattus norvegicus [2] and in the test filed under Rattus norvegicus [5] were 1.5 and 0.6, respectively.
In test [4], `CN1[C@@H](CCc2ccccc2)CCC[C@@H]1CCc1ccccc1` came in with an inhibition constant Ki of 40 µM.
In the case of `C(=C\[C@@H]1CCC[C@@H](/C=C/c2ccccc2)N1)/c1ccccc1.C(=C\[C@H]1CCC[C@H](/C=C/c2ccccc2)N1)/c1ccccc1`, the Ki in test [1] was 5.19 µM; in test [3], over 100 µM; in test [4], over 100 µM. Moreover, the Ki ratio in the test filed under Rattus norvegicus [2] and in the test listed under Rattus norvegicus [5] was over 19.3 each time.
Consider `CN1[C@H](CCc2ccccc2)CC=C[C@@H]1CCc1ccccc1`, for which the Ki in test [3] was over 100 µM.
As to `CN[C@H](CCCCCCc1ccccc1)CCc1ccccc1`, the results for the Ki in test [1], in test [3] and in test [4] were 3.96 µM, over 100 µM and over 100 µM, respectively. Besides, the Ki ratio in the test listed under Rattus norvegicus [2] and in the test filed under Rattus norvegicus [5] was over 25.2 each time.
The molecule `CN1[C@@H](CCc2ccccc2)CCC[C@@H]1/C=C/c1ccccc1` registered a Ki in test [3] of over 100 µM.
Turning to `c1ccc(CC[C@H]2CCC[C@@H](CCc3ccccc3)N2)cc1`, the results for the Ki in test [1], in test [3] and in test [4] were 2.31 µM, over 100 µM and over 100 µM, respectively. For the same molecule, the Ki ratio in the test listed under Rattus norvegicus [2] and in the test listed under Rattus norvegicus [5] was over 43.3 in each case.
Consider `c1ccc2c(CC[C@H]3CCC[C@@H](CCc4cccc5ccccc45)N3)cccc2c1`, for which the Ki is 4.68 µM in test [1], over 100 µM in test [3] and over 100 µM in test [4]. The Ki ratio in the test filed under Rattus norvegicus [2] and in the test listed under Rattus norvegicus [5] was over 21.4 each time.
As to `CN1[C@H](CCc2ccccc2)CCC[C@H]1CCc1ccccc1`, the Ki in test [4] is 25.3 µM.
Regarding `CN[C@@H](CCCCCCc1ccccc1)CCc1ccccc1`, the Ki in test [1] is 5.21 µM; in test [3], over 100 µM; in test [4], over 100 µM. Besides, the Ki ratio in the test filed under Rattus norvegicus [2] and in the test listed under Rattus norvegicus [5] was over 19.2 each time.
